Measurements as given in patent publication US6066340A, “Process for the preparation of microspheres containing biologically active components” (Fidia S.p.A., priority 1991, dated 2000).

Test: GM1 plasma levels after intramuscular administration
Format: in vivo, New Zealand rabbits
Settings: 2 mg/kg i.m.
Method: Microspheres of different dimensions of HYAFF-11 containing GM1 (10-40 μm) were prepared as described in Examples 29-30.
The ganglioside was administered by intramuscular route to groups of New Zealand rabbits (weighing 2.5 kg) at a concentration of 2 mg/kg.
At the set times, 2.5 ml of blood was withdrawn from the median artery of the ear. Each blood sample was incubated at 37° C. for one hour and then refrigerated overnight at 4° C. The samples were then centrifuged and the upper layer of serum was removed. 2 ml of tetrahydrofurane (THF) were added to 500 μl of serum for the determination of the GM1 content. The sample was stirred and centrifuged and the upper layer was stored. The precipitate was treated twice with […] of THF and 500 μl of phosphate buffer (50 mM) and centrifuged. The upper layers thus obtained were extracted with ethyl ether after separation of the aqueous phase, the organic phase was further extracted with water. The two aqueous phases were then mixed and freeze-dried. The freeze-dried product was redissolved in water and the GM1 content determined by the ELISA test.

For monosialoganglioside GM1, the “Area under curve after i.m. administration of GM1” value (1st study) was 127.74 µg/h/mL and the “Area under curve after i.m. administration of GM1” value (2nd study) was 134.43 µg/h/mL.
